According to PubChem BioAssay (NCI):
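The compound was tested at five concentrations on cells cultured in 96-well plates, with a 48-hour exposure period. GI50 marks 50% less growth. The concentration for full growth arrest is given as TGI.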

Legend:
Test in all cases: DTP human tumour cell line panel, 48 h
786-0 renal = system: 786-0 renal
A549 NSCLC = system: A549 NSCLC
ACHN renal = system: ACHN renal
BT-549 breast = system: BT-549 breast
CAKI-1 renal = system: CAKI-1 renal
CCRF-CEM leukemia = system: CCRF-CEM leukemia
COLO 205 colon = system: COLO 205 colon
DU-145 prostate = system: DU-145 prostate
EKVX NSCLC = system: EKVX NSCLC
HCC-2998 colon = system: HCC-2998 colon
HCT-116 colon = system: HCT-116 colon
HCT-15 colon = system: HCT-15 colon
HL-60(TB) leukemia = system: HL-60(TB) leukemia
HOP-62 NSCLC = system: HOP-62 NSCLC
HS 578T breast = system: HS 578T breast
HT29 colon = system: HT29 colon
IGROV1 ovarian = system: IGROV1 ovarian
K-562 leukemia = system: K-562 leukemia
KM12 colon = system: KM12 colon
LOX IMVI melanoma = system: LOX IMVI melanoma
M14 melanoma = system: M14 melanoma
MALME-3M melanoma = system: MALME-3M melanoma
MCF7 breast = system: MCF7 breast
MDA-MB-231 breast = system: MDA-MB-231 breast
MDA-MB-435 = system: MDA-MB-435
MOLT-4 leukemia = system: MOLT-4 leukemia
NCI-H226 lung = system: NCI-H226 lung
NCI-H23 lung = system: NCI-H23 lung
NCI-H460 lung = system: NCI-H460 lung
NCI-H522 lung = system: NCI-H522 lung
NCI/ADR-RES ovarian = system: NCI/ADR-RES ovarian
OVCAR-3 ovarian = system: OVCAR-3 ovarian
OVCAR-4 ovarian = system: OVCAR-4 ovarian
OVCAR-5 ovarian = system: OVCAR-5 ovarian
OVCAR-8 ovarian = system: OVCAR-8 ovarian
PC-3 prostate = system: PC-3 prostate
RXF 393 renal = system: RXF 393 renal
SF-268 CNS = system: SF-268 CNS
SF-295 CNS = system: SF-295 CNS
SF-539 CNS = system: SF-539 CNS
SK-MEL-2 melanoma = system: SK-MEL-2 melanoma
SK-MEL-28 melanoma = system: SK-MEL-28 melanoma
SK-MEL-5 melanoma = system: SK-MEL-5 melanoma
SK-OV-3 ovarian = system: SK-OV-3 ovarian
SN12C renal = system: SN12C renal
SNB-19 CNS = system: SNB-19 CNS
SNB-75 CNS = system: SNB-75 CNS
SR leukemia = system: SR leukemia
SW-620 colon = system: SW-620 colon
T-47D breast = system: T-47D breast
TK-10 renal = system: TK-10 renal
U251 CNS = system: U251 CNS
UACC-257 melanoma = system: UACC-257 melanoma
UACC-62 melanoma = system: UACC-62 melanoma
UO-31 renal = system: UO-31 renal
A498 renal = system: A498 renal
HOP-92 NSCLC = system: HOP-92 NSCLC
RPMI-8226 leukemia = system: RPMI-8226 leukemia

## O=Cc1ccc(OC[C@H]2COC(=O)N2)cc1
786-0 renal
  TGI: > 100 µM
A549 NSCLC
  TGI: > 100 µM
ACHN renal
  TGI: > 100 µM
BT-549 breast
  TGI: > 100 µM
CAKI-1 renal
  TGI: > 100 µM
CCRF-CEM leukemia
  TGI: > 100 µM
COLO 205 colon
  TGI: > 100 µM
DU-145 prostate
  TGI: > 100 µM
EKVX NSCLC
  TGI: > 100 µM
HCC-2998 colon
  TGI: > 100 µM
HCT-116 colon
  TGI: > 100 µM
HCT-15 colon
  TGI: > 100 µM
HL-60(TB) leukemia
  TGI: > 100 µM
HOP-62 NSCLC
  TGI: > 100 µM
HS 578T breast
  TGI: > 100 µM
HT29 colon
  TGI: > 100 µM
IGROV1 ovarian
  TGI: > 100 µM
K-562 leukemia
  TGI: > 100 µM
KM12 colon
  TGI: > 100 µM
LOX IMVI melanoma
  TGI: > 100 µM
M14 melanoma
  TGI: > 100 µM
MALME-3M melanoma
  TGI: > 100 µM
MCF7 breast
  TGI: > 100 µM
MDA-MB-231 breast
  TGI: > 100 µM
MDA-MB-435
  TGI: > 100 µM
MOLT-4 leukemia
  TGI: > 100 µM
NCI-H226 lung
  TGI: > 100 µM
NCI-H23 lung
  TGI: > 100 µM
NCI-H460 lung
  TGI: > 100 µM
NCI-H522 lung
  TGI: > 100 µM
NCI/ADR-RES ovarian
  TGI: > 100 µM
OVCAR-3 ovarian
  TGI: > 100 µM
OVCAR-4 ovarian
  TGI: > 100 µM
OVCAR-5 ovarian
  TGI: > 100 µM
OVCAR-8 ovarian
  TGI: > 100 µM
PC-3 prostate
  TGI: > 100 µM
RXF 393 renal
  TGI: > 100 µM
SF-268 CNS
  TGI: > 100 µM
SF-295 CNS
  TGI: > 100 µM
SF-539 CNS
  TGI: > 100 µM
SK-MEL-2 melanoma
  TGI: > 100 µM
SK-MEL-28 melanoma
  TGI: > 100 µM
SK-MEL-5 melanoma
  TGI: > 100 µM
SK-OV-3 ovarian
  TGI: > 100 µM
SN12C renal
  TGI: > 100 µM
SNB-19 CNS
  TGI: > 100 µM
SNB-75 CNS
  TGI: > 100 µM
SR leukemia
  TGI: > 100 µM
SW-620 colon
  TGI: > 100 µM
T-47D breast
  TGI: > 100 µM
TK-10 renal
  TGI: > 100 µM
U251 CNS
  TGI: > 100 µM
UACC-257 melanoma
  TGI: > 100 µM
UACC-62 melanoma
  TGI: > 100 µM
UO-31 renal
  TGI: > 100 µM

## COc1ccc(C2=NC(=O)NC2c2ccc(OC)cc2)cc1 (centres undefined)
786-0 renal
  GI50: 26.9 µM
  TGI: > 100 µM
A498 renal
  GI50: 4.49 µM
  TGI: 29.1 µM
A549 NSCLC
  GI50: 11.8 µM
  TGI: > 100 µM
ACHN renal
  GI50: 21.9 µM
  TGI: > 100 µM
BT-549 breast
  GI50: 3.89 µM
  TGI: 29.5 µM
CAKI-1 renal
  GI50: 2.51 µM
  TGI: 15.4 µM
CCRF-CEM leukemia
  GI50: 38.9 µM
  TGI: > 100 µM
COLO 205 colon
  GI50: 6.47 µM
  TGI: 21.3 µM
DU-145 prostate
  GI50: 23 µM
  TGI: > 100 µM
EKVX NSCLC
  GI50: 13 µM
  TGI: 64.6 µM
HCC-2998 colon
  GI50: 13 µM
  TGI: 33.6 µM
HCT-116 colon
  GI50: 5.9 µM
  TGI: 27.7 µM
HCT-15 colon
  GI50: 4.78 µM
  TGI: > 100 µM
HL-60(TB) leukemia
  GI50: 2.2 µM
  TGI: 15.6 µM
HOP-62 NSCLC
  GI50: 15.2 µM
  TGI: > 100 µM
HOP-92 NSCLC
  GI50: 1.95 µM
  TGI: 30.5 µM
HS 578T breast
  GI50: 7.18 µM
  TGI: 48.5 µM
HT29 colon
  GI50: 3.78 µM
  TGI: 27.9 µM
IGROV1 ovarian
  GI50: 23.2 µM
  TGI: > 100 µM
K-562 leukemia
  GI50: 2.8 µM
  TGI: 20.8 µM
KM12 colon
  GI50: 4.5 µM
  TGI: 29.5 µM
LOX IMVI melanoma
  GI50: 12.4 µM
  TGI: > 100 µM
M14 melanoma
  GI50: 4.03 µM
  TGI: 25.4 µM
MALME-3M melanoma
  GI50: 4.91 µM
  TGI: 68.3 µM
MCF7 breast
  GI50: 4.34 µM
  TGI: > 100 µM
MDA-MB-231 breast
  GI50: 12.3 µM
  TGI: > 100 µM
MDA-MB-435
  GI50: 1.73 µM
  TGI: 4.56 µM
MOLT-4 leukemia
  GI50: 1.2 µM
  TGI: 96.7 µM
NCI-H226 lung
  GI50: 14.8 µM
  TGI: > 100 µM
NCI-H23 lung
  GI50: 12.9 µM
  TGI: 78.3 µM
NCI-H460 lung
  GI50: 6.73 µM
  TGI: 51.8 µM
NCI-H522 lung
  GI50: 5.02 µM
  TGI: 60.9 µM
NCI/ADR-RES ovarian
  GI50: 4.38 µM
  TGI: 58.5 µM
OVCAR-3 ovarian
  GI50: 10.8 µM
  TGI: 35.3 µM
OVCAR-4 ovarian
  GI50: 31.5 µM
  TGI: > 100 µM
OVCAR-5 ovarian
  GI50: 25.9 µM
  TGI: > 100 µM
OVCAR-8 ovarian
  GI50: 29.6 µM
  TGI: > 100 µM
RPMI-8226 leukemia
  GI50: 7.58 µM
  TGI: 50.6 µM
RXF 393 renal
  GI50: 12 µM
  TGI: 51.5 µM
SF-268 CNS
  GI50: 16.5 µM
  TGI: > 100 µM
SF-295 CNS
  GI50: 5.35 µM
  TGI: 47.5 µM
SF-539 CNS
  GI50: 12.6 µM
  TGI: 54.8 µM
SK-MEL-2 melanoma
  GI50: 5.34 µM
  TGI: 52.8 µM
SK-MEL-28 melanoma
  GI50: 14.9 µM
  TGI: > 100 µM
SK-MEL-5 melanoma
  GI50: 3.29 µM
  TGI: 14.2 µM
SK-OV-3 ovarian
  GI50: 19.9 µM
  TGI: > 100 µM
SN12C renal
  GI50: 15.4 µM
  TGI: > 100 µM
SNB-19 CNS
  GI50: 16.9 µM
  TGI: > 100 µM
SNB-75 CNS
  GI50: 5.39 µM
  TGI: 65 µM
SR leukemia
  GI50: 1.63 µM
  TGI: 6.91 µM
SW-620 colon
  GI50: 4.65 µM
  TGI: > 100 µM
T-47D breast
  GI50: 6.9 µM
  TGI: > 100 µM
TK-10 renal
  GI50: 4.43 µM
  TGI: 35.9 µM
U251 CNS
  GI50: 7.85 µM
  TGI: > 100 µM
UACC-257 melanoma
  GI50: 36.3 µM
  TGI: > 100 µM
UACC-62 melanoma
  GI50: 4.15 µM
  TGI: 32.7 µM
UO-31 renal
  GI50: 20.7 µM
  TGI: > 100 µM
